Data: publication PMC11850127 (The Journal of Biological Chemistry, 2025)
“Also recorded” adds a separate entry of the source. Starred links: 1 amine or outer side, 2 acyl side, 3 side chain; linkers in the order of their positions; H or OH if unused. Positions of bridges follow the written chain, without caps; N, C: chain ends. Non-standard residues stand in square brackets, D forms with d. Residues, ends and D or L forms follow the SMILES beside them. Chains are numbered I, II in the order given. Actinocin(9to1) = Cc1c2oc3c(C)ccc(C(=O)[*:1])c3nc-2c(C(=O)[*:2])c(N)c1=O; NMeV = CN[C@H](C(=O)O)C(C)C; Sar = CNCC(=O)O

System: [V13′T]α10 nAChR
Assay type: cell-based, human (expressed in Xenopus laevis oocytes)

## Cc1c2oc3c(C)ccc(C(=O)N[C@@H]4C(=O)N[C@H](C(C)C)C(=O)N5CCC[C@H]5C(=O)N(C)CC(=O)N(C)[C@@H](C(C)C)C(=O)O[C@@H]4C)c3nc-2c(C(=O)N[C@@H]2C(=O)N[C@H](C(C)C)C(=O)N3CCC[C@H]3C(=O)N(C)CC(=O)N(C)[C@@H](C(C)C)C(=O)O[C@@H]2C)c(N)c1=O [actinomycin D] (I: T[dV]P[Sar][NMeV] / II: T[dV]P[Sar][NMeV]; ester I:1-I:C, II:1-II:C; linker I:N-II:N via Actinocin(9to1))
  effect of actinomycin D on ACh-induced currents: did not differ in the magnitude of their ACh-induced currents from untreated controls; also recorded: not significantly different
  mean ACh-induced response with actinomycin D: −233 ± 219 nA
